Source: ChEMBL document CHEMBL1909046, “DrugMatrix in vitro pharmacology data”

Assays:
[1] = target: Beta-2 adrenergic receptor (Homo sapiens, UniProt P07550); assay: DRUGMATRIX: Adrenergic beta2 radioligand binding (ligand: [3H] CGP-12177); type: cell membranes, Membrane; conditions: cho; Not Active = under 50% inhibition at 10 µM
[2] = target: 5-hydroxytryptamine receptor 6 (Homo sapiens, UniProt P50406); type: cell membranes, HeLa, Membrane; conditions: hela; note: in other assays of this panel Not Active means under 50% inhibition at 10 µM
Vasopressin V1a receptor = Vasopressin V1a receptor (Homo sapiens, UniProt P37288); type: cell membranes, Membrane; conditions: hek293; note: in other assays of this panel Not Active means under 50% inhibition at 10 µM
[3] = target: Prostaglandin G/H synthase 1 (Homo sapiens, UniProt P23219); assay: biochemical; type: tissue-based, Platelet; conditions: platelet;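 note: inhibition of COX-1 enzyme activity, with arachidonic acid supplied as substrate; in other assays of this panel Not Active means under 50% inhibition at 10 µM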
[4] = DRUGMATRIX: GABAA, Flunitrazepam, Central radioligand binding (ligand: [3H] Flunitrazepam); type: cell membranes, Rattus norvegicus, Wistar, Brain, Membrane; conditions: Not Active = under 50% inhibition at 10 µM
[5] = DRUGMATRIX: GABAA, Chloride Channel, TBOB radioligand binding (ligand: [3H] TBOB); type: cell membranes, Rattus norvegicus, Wistar, Cerebral cortex, Membrane; conditions: Not Active = under 50% inhibition at 10 µM
[6] = DRUGMATRIX: Interleukin IL-1 radioligand binding (ligand: [125I] interleukin 1beta); type: cell membranes, Membrane; conditions: nih3t3; Not Active = under 50% inhibition at 10 µM
[7] = target: T1, Angiotensin-converting enzyme (Oryctolagus cuniculus, UniProt P12822); type: tissue-based, Lung;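 note: enzymatic inhibition of angiotensin-converting enzyme measured with FAPGG as the substrate; in other assays of this panel Not Active means under 50% inhibition at 10 µM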
T1 sequence (P12822 whole entry): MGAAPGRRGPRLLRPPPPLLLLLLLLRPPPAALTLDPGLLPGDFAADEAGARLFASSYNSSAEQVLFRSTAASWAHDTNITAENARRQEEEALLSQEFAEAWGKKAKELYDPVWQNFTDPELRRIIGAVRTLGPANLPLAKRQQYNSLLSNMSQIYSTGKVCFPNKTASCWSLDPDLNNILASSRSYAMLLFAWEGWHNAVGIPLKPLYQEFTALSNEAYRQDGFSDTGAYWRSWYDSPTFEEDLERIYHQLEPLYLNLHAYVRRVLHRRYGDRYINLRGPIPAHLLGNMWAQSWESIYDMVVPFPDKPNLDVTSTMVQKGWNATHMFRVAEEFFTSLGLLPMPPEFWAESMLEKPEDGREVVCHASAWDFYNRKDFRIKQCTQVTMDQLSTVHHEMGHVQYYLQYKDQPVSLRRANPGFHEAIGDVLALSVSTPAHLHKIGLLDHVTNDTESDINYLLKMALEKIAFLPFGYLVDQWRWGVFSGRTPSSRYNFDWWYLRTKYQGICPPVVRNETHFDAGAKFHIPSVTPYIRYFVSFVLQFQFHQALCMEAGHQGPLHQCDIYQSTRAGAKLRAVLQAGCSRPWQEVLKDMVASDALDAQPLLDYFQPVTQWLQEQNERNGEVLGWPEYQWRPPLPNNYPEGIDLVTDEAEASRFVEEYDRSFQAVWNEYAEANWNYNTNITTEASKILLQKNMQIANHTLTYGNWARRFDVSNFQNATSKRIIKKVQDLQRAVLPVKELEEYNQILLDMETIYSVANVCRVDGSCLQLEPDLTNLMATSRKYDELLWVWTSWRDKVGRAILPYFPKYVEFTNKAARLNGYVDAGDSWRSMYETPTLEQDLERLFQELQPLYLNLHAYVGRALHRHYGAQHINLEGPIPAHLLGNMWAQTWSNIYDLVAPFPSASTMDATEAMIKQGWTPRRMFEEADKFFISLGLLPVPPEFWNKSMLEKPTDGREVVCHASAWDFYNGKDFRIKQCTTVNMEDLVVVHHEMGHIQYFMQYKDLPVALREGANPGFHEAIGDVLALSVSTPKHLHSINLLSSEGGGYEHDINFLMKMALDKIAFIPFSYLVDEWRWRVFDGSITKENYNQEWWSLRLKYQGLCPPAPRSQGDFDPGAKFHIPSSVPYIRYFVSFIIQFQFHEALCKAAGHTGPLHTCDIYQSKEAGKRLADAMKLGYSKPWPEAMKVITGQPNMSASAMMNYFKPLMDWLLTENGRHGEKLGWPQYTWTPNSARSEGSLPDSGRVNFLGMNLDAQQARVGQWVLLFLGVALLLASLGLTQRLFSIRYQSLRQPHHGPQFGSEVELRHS

Prostaglandin G/H synthase 1, sequence (P23219 whole entry): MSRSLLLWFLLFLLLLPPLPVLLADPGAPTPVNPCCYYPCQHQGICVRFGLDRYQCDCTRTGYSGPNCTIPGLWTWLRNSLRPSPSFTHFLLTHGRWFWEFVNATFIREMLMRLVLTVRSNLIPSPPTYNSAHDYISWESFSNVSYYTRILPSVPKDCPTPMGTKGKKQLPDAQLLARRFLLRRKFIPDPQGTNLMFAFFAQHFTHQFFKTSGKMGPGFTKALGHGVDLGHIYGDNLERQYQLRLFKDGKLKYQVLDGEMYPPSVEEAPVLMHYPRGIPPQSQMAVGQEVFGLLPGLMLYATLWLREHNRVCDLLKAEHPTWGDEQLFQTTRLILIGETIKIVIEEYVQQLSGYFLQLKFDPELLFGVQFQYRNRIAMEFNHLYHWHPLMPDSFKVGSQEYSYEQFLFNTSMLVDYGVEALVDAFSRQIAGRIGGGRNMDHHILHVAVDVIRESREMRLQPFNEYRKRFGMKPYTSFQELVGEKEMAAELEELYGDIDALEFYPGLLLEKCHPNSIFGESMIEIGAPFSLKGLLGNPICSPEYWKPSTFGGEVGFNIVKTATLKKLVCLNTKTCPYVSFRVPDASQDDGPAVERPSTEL
5-hydroxytryptamine receptor 6, sequence (P50406 whole entry): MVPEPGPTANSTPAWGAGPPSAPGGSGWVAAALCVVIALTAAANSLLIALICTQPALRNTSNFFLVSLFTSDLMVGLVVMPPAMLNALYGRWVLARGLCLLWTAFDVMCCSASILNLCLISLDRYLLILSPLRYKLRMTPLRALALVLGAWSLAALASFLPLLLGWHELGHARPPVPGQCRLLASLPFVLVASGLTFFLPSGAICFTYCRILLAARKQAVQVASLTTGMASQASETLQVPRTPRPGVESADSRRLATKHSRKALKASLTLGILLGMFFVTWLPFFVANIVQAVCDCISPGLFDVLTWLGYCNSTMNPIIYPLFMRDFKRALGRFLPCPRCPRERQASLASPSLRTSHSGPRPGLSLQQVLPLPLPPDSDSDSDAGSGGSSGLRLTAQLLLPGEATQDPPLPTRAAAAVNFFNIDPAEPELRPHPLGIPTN
Beta-2 adrenergic receptor, sequence (P07550 whole entry): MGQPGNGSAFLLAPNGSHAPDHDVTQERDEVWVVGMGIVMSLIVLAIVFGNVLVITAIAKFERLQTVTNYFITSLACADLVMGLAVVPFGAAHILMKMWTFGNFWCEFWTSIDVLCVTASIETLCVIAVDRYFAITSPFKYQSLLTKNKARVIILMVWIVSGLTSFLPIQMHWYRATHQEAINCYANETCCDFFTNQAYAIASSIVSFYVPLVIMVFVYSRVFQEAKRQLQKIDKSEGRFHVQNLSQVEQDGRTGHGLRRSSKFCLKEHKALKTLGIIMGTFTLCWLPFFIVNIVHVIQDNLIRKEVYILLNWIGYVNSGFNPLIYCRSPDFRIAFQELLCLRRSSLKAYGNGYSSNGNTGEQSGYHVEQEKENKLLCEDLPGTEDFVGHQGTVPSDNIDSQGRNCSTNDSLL
Vasopressin V1a receptor, sequence (P37288 whole entry): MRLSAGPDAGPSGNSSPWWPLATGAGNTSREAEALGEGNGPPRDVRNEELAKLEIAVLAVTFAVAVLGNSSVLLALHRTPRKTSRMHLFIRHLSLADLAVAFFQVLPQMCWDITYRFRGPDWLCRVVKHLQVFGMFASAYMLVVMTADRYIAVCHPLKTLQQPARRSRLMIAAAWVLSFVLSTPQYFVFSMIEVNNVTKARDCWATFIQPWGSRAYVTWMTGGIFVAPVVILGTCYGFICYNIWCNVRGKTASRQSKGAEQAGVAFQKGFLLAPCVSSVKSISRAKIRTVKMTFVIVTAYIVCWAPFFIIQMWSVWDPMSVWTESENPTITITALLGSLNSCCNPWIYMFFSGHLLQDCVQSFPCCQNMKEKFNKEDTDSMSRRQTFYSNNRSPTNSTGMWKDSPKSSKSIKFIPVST

Cc1cc(C2CCCCC2)n(O)c(=O)c1 [CICLOPIROX]
Not Active: IC50 [1] | IC50 [2] | IC50 (Vasopressin V1a receptor) | IC50 [3] | IC50 [4] | Ki [4] | IC50 [5] | Ki [5] | IC50 [6] | Ki [6] | IC50 [7]

CCCCN1CCCC[C@H]1C(=O)Nc1c(C)cccc1C [LEVOBUPIVACAINE]
Not Active: IC50 [1] | IC50 [2] | IC50 (Vasopressin V1a receptor) | IC50 [3] | IC50 [4] | Ki [4] | IC50 [5] | Ki [5] | IC50 [6] | Ki [6] | IC50 [7]

CC[C@@]1(O)C[C@H](O[C@H]2C[C@H](N(C)C)[C@H](O[C@H]3C[C@H](O)[C@H](O[C@H]4CCC(=O)[C@H](C)O4)[C@H](C)O3)[C@H](C)O2)c2c(cc3c(c2O)C(=O)c2c(O)cccc2C3=O)[C@H]1C(=O)OC [ACLARUBICIN]
Not Active: IC50 [1] | IC50 [2] | IC50 (Vasopressin V1a receptor) | IC50 [3] | IC50 [4] | Ki [4] | IC50 [5] | Ki [5] | IC50 [6] | Ki [6] | IC50 [7]

CC(=O)O[C@@]12CO[C@@H]1C[C@H](O)[C@@]1(C)C(=O)[C@H](O)C3=C(C)[C@@H](OC(=O)[C@H](O)[C@@H](NC(=O)OC(C)(C)C)c4ccccc4)C[C@@](O)([C@@H](OC(=O)c4ccccc4)[C@H]21)C3(C)C.O.O.O [DOCETAXEL]
Not Active: IC50 [1] | IC50 [2] | IC50 (Vasopressin V1a receptor) | IC50 [3] | IC50 [4] | Ki [4] | IC50 [5] | Ki [5] | IC50 [6] | Ki [6] | IC50 [7]

N=C(N)NCCN1CCCCCCC1 [GUANETHIDINE]
Not Active: IC50 [1] | IC50 [2] | IC50 (Vasopressin V1a receptor) | IC50 [3] | IC50 [4] | Ki [4] | IC50 [5] | Ki [5] | IC50 [6] | Ki [6] | IC50 [7]

CNCCc1ccccn1 [BETAHISTINE]
Not Active: IC50 [1] | IC50 [2] | IC50 (Vasopressin V1a receptor) | IC50 [3] | IC50 [4] | Ki [4] | IC50 [5] | Ki [5] | IC50 [6] | Ki [6] | IC50 [7]

Clc1cccc(Cl)c1NC1=NCCN1 [CLONIDINE]
Not Active: IC50 [1] | IC50 [2] | IC50 (Vasopressin V1a receptor) | IC50 [3] | IC50 [4] | Ki [4] | IC50 [5] | Ki [5] | IC50 [6] | Ki [6] | IC50 [7]

CC(C)(Oc1ccc(Cl)cc1)C(=O)O [CLOFIBRIC ACID]
Not Active: IC50 [1] | IC50 [2] | IC50 (Vasopressin V1a receptor) | IC50 [3] | IC50 [4] | Ki [4] | IC50 [5] | Ki [5] | IC50 [6] | Ki [6] | IC50 [7]

OC(Cn1cncn1)(Cn1cncn1)c1ccc(F)cc1F [FLUCONAZOLE]
Not Active: IC50 [1] | IC50 [2] | IC50 (Vasopressin V1a receptor) | IC50 [3] | IC50 [4] | Ki [4] | IC50 [5] | Ki [5] | IC50 [6] | Ki [6] | IC50 [7]

O=C1CC[C@@H](N2C(=O)c3ccccc3C2=O)C(=O)N1
Not Active: IC50 [1] | IC50 [2] | IC50 (Vasopressin V1a receptor) | IC50 [3] | IC50 [4] | Ki [4] | IC50 [5] | Ki [5] | IC50 [6] | Ki [6] | IC50 [7]
